Source: PubChem BioAssay (NCI)
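Briefly, cells in 96-well plates were exposed to five compound concentrations for 48 h, and endpoints were estimated by linear interpolation. GI50 marks 50% less growth. TGI marks complete inhibition of growth.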

Experiments:
Test in all cases: inhibition of tumour cell growth, NCI panel, 48 h
SK-MEL-2 melanoma = tested on: SK-MEL-2 melanoma
ACHN renal = tested on: ACHN renal
DMS 273 small cell lung = tested on: DMS 273 small cell lung
UO-31 renal = tested on: UO-31 renal
M19-MEL melanoma = tested on: M19-MEL melanoma
SNB-78 CNS = tested on: SNB-78 CNS
KM12 colon = tested on: KM12 colon
SF-539 CNS = tested on: SF-539 CNS
LXFL 529 NSCLC = tested on: LXFL 529 NSCLC
HL-60(TB) leukemia = tested on: HL-60(TB) leukemia
SK-MEL-28 melanoma = tested on: SK-MEL-28 melanoma
MDA-MB-435 = tested on: MDA-MB-435

Compound | TGI (SK-MEL-2 melanoma) [µM] | TGI (ACHN renal) [µM] | TGI (DMS 273 small cell lung) [µM] | TGI (UO-31 renal) [µM] | TGI (M19-MEL melanoma) [µM] | TGI (SNB-78 CNS) [µM] | TGI (KM12 colon) [µM] | TGI (SF-539 CNS) [µM] | TGI (LXFL 529 NSCLC) [µM] | TGI (HL-60(TB) leukemia) [µM] | TGI (SK-MEL-28 melanoma) [µM] | GI50 (SK-MEL-2 melanoma) [µM] | GI50 (ACHN renal) [µM] | GI50 (MDA-MB-435) [µM] | TGI (MDA-MB-435) [µM] | GI50 (UO-31 renal) [µM] | GI50 (KM12 colon) [µM] | GI50 (SF-539 CNS) [µM] | GI50 (HL-60(TB) leukemia) [µM] | GI50 (SK-MEL-28 melanoma) [µM]
O=C1c2ccccc2C2(O)Oc3cccc(O)c3C12O (stereo unspecified) | > 100 | > 100 | > 100 | > 100 | > 100 | > 100 | > 100 | > 100 | > 100 | > 100 | > 100 |  |  |  |  |  |  |  |  | 
Cn1cnc([N+](=O)[O-])c1Sc1nnc(C(F)(F)F)n1C | 48.5 | 57.4 | 87.5 | > 100 | 37.2 | > 100 | > 100 | 65.7 | 27.8 |  | 38.1 |  |  |  |  |  |  |  |  | 
O=C1NC(=S)NC(=O)C1=Cc1ccc2ccccc2n1 | > 100 | > 100 | > 100 | > 100 | > 100 | > 100 | > 100 | > 100 | > 100 | > 100 | > 100 |  |  |  |  |  |  |  |  | 
O=C(/C=C/c1ccc(Cl)cc1)c1ccncc1 | > 100 | > 100 | > 100 | > 100 | 68.7 | > 100 | 86.6 | > 100 | > 100 | 67.3 | > 100 |  |  |  |  |  |  |  |  | 
C=CCNC(=S)OCCCCCCCCCC | 24.8 | 32.7 | 37.3 | 24.8 | 32.5 | 36.7 | 26.6 | 34 | 28.5 | 53.5 | 44.9 |  |  |  |  |  |  |  |  | 
COC1(OC)c2ccccc2C2(O)c3ccccc3C(=O)C12 (stereo unspecified) | > 100 | > 100 | > 100 | 86.8 | > 100 | > 100 | > 100 | > 100 | > 100 | 46 | > 100 |  |  |  |  |  |  |  |  | 
CC(C)(C)C(=O)OCC(COC(=O)C(C)(C)C)[N+](=O)[O-] | > 100 | > 100 | > 100 | > 100 | > 100 |  | > 100 | > 100 | > 100 | 79.8 | > 100 |  |  |  |  |  |  |  |  | 
CCOC(=O)C1(C(=O)OCC)CC=C(C)CC12C(=O)Nc1ccccc12 (stereo unspecified) | > 100 | > 100 | > 100 |  | > 100 |  | > 100 | > 100 | > 100 | > 100 | > 100 |  |  |  |  |  |  |  |  | 
COc1ccc(N2C(=O)C3c4[nH]c5ccccc5c4C4CCC(C(C)(C)C)CC4C3C2=O)cc1OC (stereo unspecified) |  | 46.6 | 31.2 | > 100 | > 100 | 56.4 |  | 34.7 | 32.5 | > 100 | > 100 |  |  |  |  |  |  |  |  | 
O=C(O/N=C1/CCCC/C1=C\c1ccccc1)c1ccc(Cl)cc1 | > 100 | > 100 | > 100 | > 100 | > 100 | > 100 | > 100 | > 100 | > 100 | > 100 | > 100 |  |  |  |  |  |  |  |  | 
COC(=O)c1ccccc1N=Cc1ccc(N(CCC#N)S(=O)(=O)c2ccccc2)cc1 | > 100 | > 100 | > 100 | > 100 | > 100 | > 100 | > 100 | > 100 | > 100 | > 100 | > 100 |  |  |  |  |  |  |  |  | 
COc1cc(/C=C2\CCc3ccccc3C2=O)cc(OC)c1OC | 29.8 | 29.6 | 24.2 | 30.7 | 30 | 74.1 | 26.5 | 30.8 | 29.5 | 45.5 | 28.4 |  |  |  |  |  |  |  |  | 
O=C1CCC(=O)C12CCc1cccc(O)c12 |  | > 100 | > 100 | > 100 | > 100 | > 100 |  |  | > 100 | > 100 | > 100 |  |  |  |  |  |  |  |  | 
CC12CCC(O)CC1CCC1C2CCC2(C)C(C3=CC(=O)OC3)CCC12 (stereo unspecified) | 29.8 | > 91.3 |  | > 100 |  |  | > 100 | > 100 |  | > 100 | > 100 | 7.49 | 26.4 | > 100 | > 100 | > 100 | > 100 | 21.9 | > 100 | 28.2
Cc1nc2ccc(NCCN(C)C)c3c(=O)c4cc(O)ccc4n1c23 | 13.4 | 1.94 | 1.76 | 9.14 | 9.27 |  | 4.09 | 12.2 | 11.1 | 3.1 | 11.7 |  |  |  | 13.7 |  |  |  |  | 
Cc1nn(C)c(=S)n(C)c1=O | 34.8 | 10.2 | 11 | 0.753 | > 100 | > 100 |  | 21.9 | 54.6 | 6.47 | > 100 |  |  |  |  |  |  |  |  | 
CC1(CO)C(=O)OC12CCCCC2 (stereo unspecified) | > 100 |  | > 100 | > 100 | > 100 | > 100 | > 100 | > 100 | > 100 | > 100 | > 100 |  |  |  |  |  |  |  |  | 
Oc1ccc(SCc2ccc(NCc3ccccc3)cc2)cc1 | 61.1 | > 100 |  | 56.5 |  |  | > 100 | > 100 |  | 68.9 | > 100 |  |  |  | > 100 |  |  |  |  | 
COc1ccc(-c2nn(-c3cccc(NC(=O)Nc4cccc(C(F)(F)F)c4)c3)cc2-c2ccncc2)cc1Cl | 5.23 | > 100 |  | > 100 |  |  | 5.23 | 6.45 |  | 6.26 | 22.6 | 2.37 | 1.88 | 1.45 | 4.67 | 1.48 | 1.47 | 1.97 | 1.95 | 2.57
COC(=O)c1cc2c(cc1Cl)SC(N(N(C)C)S(=O)(=O)c1ccc(Cl)cc1)=NS2(=O)=O | 59 | 38.5 |  | > 100 |  |  | 27 | 31.5 |  | 42.6 | 29.3 | 20.5 | 17.8 | 16.3 | 33.3 | 25.3 | 13.8 | 15.8 | 16.4 | 15.9
